# Patent US20200405715A1, “COMPOSITIONS AND METHODS FOR TREATING CANCER AND INFLAMMATORY DISEASES” (University of Pittsburgh - Of the Commonwealth System of …, priority 2016, published 2020)
# Tested on: HepG2 tumor implants
# Assay: HepG2 tumor implants in nude mice, tumor growth
# Assay type: in vivo, athymic nude mice
# Details: compounds in drinking water (15 mg/kg/d), start at tumor size 0.1 cm^3 (FIG. 8)
# Protocol: Mice were implanted with HepG2 cells (10^6 cells) through subcutaneous injection. 2 weeks later, once tumor size reaches ˜0.1 cm^3, mice were randomized and the treatment began by adding compounds to the drinking water ([…]). Tested compounds were: Vehicle, 3-(decylamino)-5-phenylcyclohex-2-en-1-one (BC1558), 3-(dibenzylamino)-5-phenylcyclohex-2-en-1-one (BC1634) or 3-((4-phenoxybenzyl)amino)-5-phenylcyclohex-2-en-1-one (BC1653). Tumor volume measurements over time were graphed (n=4-5 mice/group, *P<0.05 versus Vehicle).
# As a complementary in vivo model, tumorogenicity was further assessed after implanting HepG2 cells along with 3-(decylamino)-5-phenylcyclohex-2-en-1-one, 3-(dibenzylamino)-5-phenylcyclohex-2-en-1-one, 3-((4-phenoxybenzyl)amino)-5-phenylcyclohex-2-en-1-one treatment in athymic nude mice. Mice were implanted with HepG2 cells through subcutaneous injection. Two weeks later, once tumor size reached 0.1 cm^3, the mice were randomized and the treatment began by adding compounds to the drinking water (15 mg/kg/d).
row,Compound,tumor size compared to the vehicle
1,"O=C1C=C(N(Cc2ccccc2)Cc2ccccc2)CC(c2ccccc2)C1 (stereo not drawn) [BC1634, 3-(dibenzylamino)-5-phenylcyclohex-2-en-1-one]",Significantly reduced tumor size
2,"O=C1C=C(NCc2ccc(Oc3ccccc3)cc2)CC(c2ccccc2)C1 (stereo not drawn) [BC1653, 3-((4-phenoxybenzyl)amino)-5-phenylcyclohex-2-en-1-one]",Significantly reduced tumor size

# Tested on: DSS induced colonic inflammation
# Assay: DSS induced colitis model
# Assay type: in vivo, C57BL6 mice
# Details: DSS in water, compounds in drinking water at 10 mg/kg/d (FIG. 12A-B)
# Protocol: FIGS. 12A-12D show DCN1 inhibitors reduce DSS induced colonic inflammation, specifically the following experimental results C57BL6 mice were fed with water ad lib containing 3% dextran sulfate sodium (DSS) for six days. DCN1 inhibitors were administered into drinking water at 10 mg/kg/d, starting at day 1. […] The data represent n=4 mice/group, *P<0.05 versus CON.
# Also tested were 3-(decylamino)-5-phenylcyclohex-2-en-1-one (BC1558), 3-(dibenzylamino)-5-phenylcyclohex-2-en-1-one (BC1634) and 3-((4-phenoxybenzyl)amino)-5-phenylcyclohex-2-en-1-one (BC1653) in a mouse colitis model to confirm its anti-inflammatory activity. Briefly, C57BL6 mice were fed with water containing 3.5% […] and colonic length was measured. DSS produced a significant decrease in colon length in mice, consistent with colonic inflammation (FIG. 12A-B). […] Colonic tissue cytokine levels were further analyzed.
row,Compound,colon length compared vehicle
1,"O=C1C=C(NCc2ccc(Oc3ccccc3)cc2)CC(c2ccccc2)C1 (stereo not drawn) [BC1653, 3-((4-phenoxybenzyl)amino)-5-phenylcyclohex-2-en-1-one]",significant increase

# Same assay, conditions: DSS in water, compounds in drinking water at 10 mg/kg/d (FIG. 12C-D)
row,Compound,IL1β and IL6 levels in colonic tissue compared to vehicle
1,"O=C1C=C(NCc2ccc(Oc3ccccc3)cc2)CC(c2ccccc2)C1 (stereo not drawn) [BC1653, 3-((4-phenoxybenzyl)amino)-5-phenylcyclohex-2-en-1-one]",large reduction

# Tested on: HepG2 cells
# Assay: HepG2 cell proliferation (CellTiter-Glo Luminescent Cell Viability Assay)
# Assay type: cell-based
# Details: Homo sapiens, 96 h, ATP production, n=3, read-out: IC50Proliferation
# Protocol: Cell proliferation were then measured by CellTiter-Glo® Luminescent Cell Viability Assay (n=3).
# 4KHepG2 cells were seeded in 96 well plates for overnight. Compounds listed in Table 3 were then added to each well at various concentrations. 96 h later, cell proliferation was measured by ATP production using a CellTiter-Glo® Luminescent Cell Viability Assay (Promega).
# 3-(pentylamino)-5-phenylcyclohex-2-en-1-one was modified by adding a different sidechain. These novel compounds were tested further in an in vitro proliferation assay using ATPLite Cell Proliferation kit. […] Others lost activity in reducing Cullin Neddylation and inhibiting cell proliferation (FIG. 3C-D).
row,Compound,IC50 [µM]
1,CCCCCNC1=CC(=O)CC(c2ccccc2)C1 (stereo not drawn) [BC1526],1 to 10
2,CC(C)CCNC1=CC(=O)CC(c2ccccc2)C1 (stereo not drawn) [BC1532],1 to 10
3,O=C1C=C(NC2CCCCC2)CC(c2ccccc2)C1 (stereo not drawn) [BC1534],> 10
4,O=C1C=C(NCCc2ccccc2)CC(c2ccccc2)C1 (stereo not drawn) [BC1535],1 to 10
5,CCC(C)NC1=CC(=O)CC(c2ccccc2)C1 (stereo not drawn) [BC1546],> 10
6,O=C1C=C(NCc2ccccc2)CC(c2ccccc2)C1 (stereo not drawn) [BC1548],1 to 10
7,O=C1C=C(NC23CC4C[C@H](C2)C[C@@H](C4)C3)CC(c2ccccc2)C1 (stereo partly drawn) [BC1549],> 10
8,O=C1C=C(NC2C[C@@H]3CCC2C3)CC(c2ccccc2)C1 (stereo partly drawn) [BC1550],1 to 10
9,CCCCCCCNC1=CC(=O)CC(c2ccccc2)C1 (stereo not drawn) [BC1552],< 1
10,CCCCCCCCNC1=CC(=O)CC(c2ccccc2)C1 (stereo not drawn) [BC1554],< 1
11,CCCCCCCCCNC1=CC(=O)CC(c2ccccc2)C1 (stereo not drawn) [BC1556],< 1
12,CCCCCCCCCCCNC1=CC(=O)CC(c2ccccc2)C1 (stereo not drawn) [BC1560],< 1
13,CCCCCCCCCCCCNC1=CC(=O)CC(c2ccccc2)C1 (stereo not drawn) [BC1562],< 1
14,CCCCCCCCCCCCCCCCNC1=CC(=O)CC(c2ccccc2)C1 (stereo not drawn) [BC1564],> 10
15,O=C1C=C(NC(c2ccccc2)c2ccccc2)CC(c2ccccc2)C1 (stereo not drawn) [BC1621],> 10
16,O=C1C=C(NC2CCCCCCCCCCC2)CC(c2ccccc2)C1 (stereo not drawn) [BC1623],> 10
17,O=C1C=C(NC2CCC2)CC(c2ccccc2)C1 (stereo not drawn) [BC1625],> 10
18,CC1(C)C2C[C@@H]1CCC2CNC1=CC(=O)CC(c2ccccc2)C1 (stereo partly drawn) [BC1627],1 to 10
19,O=C1C=C(NCc2ccc(-c3ccccc3)cc2)CC(c2ccccc2)C1 (stereo not drawn) [BC1629],< 1
20,O=C1C=C(NCc2cccc(-c3ccccc3)c2)CC(c2ccccc2)C1 (stereo not drawn) [BC1631],< 1
21,O=C1C=C(NCC2CCCCC2)CC(c2ccccc2)C1 (stereo not drawn) [BC1633],> 10
22,Cc1ccccc1-c1cccc(CNC2=CC(=O)CC(c3ccccc3)C2)c1 (stereo not drawn) [BC1640],1 to 10
23,Cc1ccccc1-c1cccc(CNC2=CC(=O)CC(c3ccc4c(c3)OCO4)C2)c1 (stereo not drawn) [BC1641],> 10

row,Compound,IC50 [µM]
1,CCCCCCCCCCNC1=CC(=O)CC(c2ccc3c(c2)OCO3)C1 (stereo not drawn) [BC1644],> 10
2,CCCCCCCCCCNC1=CC(=O)CC(c2ccco2)C1 (stereo not drawn) [BC1646],< 1
3,CCCCCCCCCCNC1=CC(=O)CC(c2ccc(F)cc2)C1 (stereo not drawn) [BC1648],1 to 10
4,O=C1C=C(NCc2cccc(-c3ncccn3)c2)CC(c2ccccc2)C1 (stereo not drawn) [BC1650],1 to 10
5,O=C1C=C(NCc2cccc(Oc3ccccc3)c2)CC(c2ccccc2)C1 (stereo not drawn) [BC1651],< 1
6,"O=C1C=C(NCc2ccc(Oc3ccccc3)cc2)CC(c2ccccc2)C1 (stereo not drawn) [BC1653, 3-((4-phenoxybenzyl)amino)-5-phenylcyclohex-2-en-1-one]",< 1
7,Cc1cccc(N2CCC(NC3=CC(=O)CC(c4ccccc4)C3)CC2)c1 (stereo not drawn) [BC1654],> 10
8,O=C1C=C(Nc2cnc(-c3ccccc3)nc2)CC(c2ccccc2)C1 (stereo not drawn) [BC1655],> 10
9,O=C1C=C(NCc2cnc(Nc3ccccc3)nc2)CC(c2ccccc2)C1 (stereo not drawn) [BC1656],> 10
10,O=C1C=C(NCc2cnc(-c3ccccc3)nc2)CC(c2ccccc2)C1 (stereo not drawn) [BC1657],1 to 10
11,O=C1C=C(NCc2nc3ccccc3[nH]2)CC(c2ccccc2)C1 (stereo not drawn) [BC1658],> 10
12,O=C1C=C(NCc2ccc3[nH]c4ccccc4c3c2)CC(c2ccccc2)C1 (stereo not drawn) [BC1659],< 1
13,COc1ccc(Oc2ccc(CNC3=CC(=O)CC(c4ccccc4)C3)cc2)cc1 (stereo not drawn) [BC1660],1 to 10
14,CC(NC1=CC(=O)CC(c2ccccc2)C1)c1ccc(Oc2ccccc2)cc1 (stereo not drawn) [BC1661],> 10
15,O=C1C=C(NCc2ccc(Oc3ccc(F)cc3)cc2)CC(c2ccccc2)C1 (stereo not drawn) [BC1662],< 1
16,O=C1C=C(NCc2ccc(OC3CCCCC3)cc2)CC(c2ccccc2)C1 (stereo not drawn) [BC1663],< 1
17,CN1CCC(c2ccc(CNC3=CC(=O)CC(c4ccccc4)C3)cc2)CC1 (stereo not drawn) [BC1664],> 10
18,O=C1C=C(NCc2ccc(CN3CCCCC3)cc2)CC(c2ccccc2)C1 (stereo not drawn) [BC1665],> 10
19,O=C1C=C(NCc2ccc(OC3CCCC3)cc2)CC(c2ccccc2)C1 (stereo not drawn) [BC1666],< 1
20,CC1CC(C)CN(Cc2ccc(CNC3=CC(=O)CC(c4ccccc4)C3)cc2)C1 (stereo not drawn) [BC1667],> 10
21,O=C1C=C(NCc2ccc(CN3CCOCC3)cc2)CC(c2ccccc2)C1 (stereo not drawn) [BC1668],1 to 10
22,COc1cc(CNC2=CC(=O)CC(c3ccccc3)C2)ccc1OC1CCCC1 (stereo not drawn) [BC1669],< 1
23,O=C1C=C(NCc2ccc3oc4ccccc4c3c2)CC(c2ccccc2)C1 (stereo not drawn) [BC1670],1 to 10

# Tested on: Nedd8-cullin
# Assay: Cullin neddylation, protein immunoblotting in HepG2 cells
# Assay type: cell-based
# Details: 48 h at 10 uM (FIG. 2)
# Excerpt: Cells were then collected and assayed for protein immunoblotting. […]
# DCN1 protein is believed to harbor a UBC12 binding pocket. Scott et al, Cell 757:1671-84 (2014). […] Scott et al. (2014). The N-terminal acetylation acts as an avidity enhancer within an interconnected multiprotein complex. Science, 554:674-8 (2011). Specifically, n-terminal of UBC12 is acetylated (FIG. 1A, yellow) and completely buried inside the hydrophobic pocket within DCN1 (4gao.PDB, FIG. 1B). Small molecule inhibition of the DCN1 hydrophobic pocket would presumably disrupt UBC12 binding, and thus disrupt Neddylation of Cullin protein. Potential ligands were assessed that might fit the DCN1 domain cavities (FIG. 1B). 3-(pentylamino)-5-phenylcyclohex-2-en-1-one was selected for future testing (FIG. 1C). […] MLN4924 was used as a positive control.
row,Compound,reducing cullin1 neddylation
1,CCCCCNC1=CC(=O)CC(c2ccccc2)C1 (stereo not drawn) [3-(pentylamino)-5-phenylcyclohex-2-en-1-one],good activity
